Patent US12655116B2, “Substituted isophthalic acid diamides” (Bayer Aktiengesellschaft, priority 2020, dated 2026)

Legend:
ABUTH [1] = assay: Pre-emergence herbicidal action against ABUTH; type: in vivo, Abutilon theophrasti
Procedure, shortened: (§1)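 Pre-emergence soil-surface spray of formulated compound (WP or EC; 600 to 800 l/ha; 0.2% wetting agent) over seeds sown in sandy loam. After 3 weeks under greenhouse conditions, damage is estimated visually in percent against untreated plants.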

ALOMY [2] = assay: Pre-emergence herbicidal action against ALOMY; type: in vivo, Alopecurus myosuroides
Procedure, shortened: as §1

AMARE [3] = assay: Pre-emergence herbicidal action against AMARE; type: in vivo, Amaranthus retroflexus
Procedure, shortened: as §1

AVEFA [4] = assay: Pre-emergence herbicidal action against AVEFA; type: in vivo, Avena fatua; conditions: 80 g/ha, pre-emergence
Procedure, shortened: as §1

ECHCG [5] = assay: Pre-emergence herbicidal action against ECHCG; type: in vivo, Echinochloa crus-galli
Procedure, shortened: as §1

LOLRI = assay: Pre-emergence herbicidal action against LOLRI; type: in vivo, Lolium rigidum; conditions: 80 g/ha
Procedure, shortened: as §1

MATIN [6] = assay: Pre-emergence herbicidal action against MATIN; type: in vivo, Matricaria inodora
Procedure, shortened: as §1

PHBPU [7] = assay: Pre-emergence herbicidal action against PHBPU; type: in vivo, Pharbitis purpurea
Procedure, shortened: as §1

POLCO = assay: Pre-emergence herbicidal action against POLCO; type: in vivo, Polygonum convolvulus
Procedure, shortened: as §1

SETVI [8] = assay: Pre-emergence herbicidal action against SETVI; type: in vivo, Setaria viridis
Procedure, shortened: as §1

VERPE [9] = assay: Pre-emergence herbicidal action against VERPE; type: in vivo, Veronica persica; conditions: dosage 80 g/ha
Procedure, shortened: as §1

VIOTR [10] = assay: Pre-emergence herbicidal action against VIOTR; type: in vivo, Viola tricolor
Procedure, shortened: as §1

DIGSA [11] = assay: Pre-emergence herbicidal action against DIGSA; type: in vivo, Digitaria sanguinalis
Procedure, shortened: as §1

ABUTH [12] = assay: Post-emergence herbicidal action against ABUTH; type: in vivo, Abutilon theophrasti; conditions: dosage 20 g/ha, visual assessment about 3 weeks after treatment vs untreated controls
Procedure, shortened: (§2)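 Greenhouse plants in sandy loam were sprayed at the one-leaf stage, 2 to 3 weeks after sowing, with WP or EC formulations as aqueous suspension or emulsion (600 to 800 l/ha water, 0.2% wetting agent). Visual damage was scored about 3 weeks later versus untreated controls, 0% = like control, 100% = dead.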

ALOMY [13] = assay: Post-emergence herbicidal action against ALOMY; type: in vivo, Alopecurus myosuroides; conditions: visual assessment about 3 weeks after treatment vs untreated controls
Procedure, shortened: as §2

AMARE [14] = assay: Post-emergence herbicidal action against AMARE; type: in vivo, Amaranthus retroflexus; conditions: 20 g/ha, visual assessment about 3 weeks after treatment, 100% = plants have died, 0% = like control plants
Procedure, shortened: as §2

AVEFA [15] = assay: Post-emergence herbicidal action against AVEFA; type: in vivo, Avena fatua; conditions: visual assessment about 3 weeks after treatment, 100% = plants have died, 0% = like control plants
Procedure, shortened: as §2

ECHCG [16] = assay: Post-emergence herbicidal action against ECHCG; type: in vivo, Echinochloa crus-galli
Procedure, shortened: as §2

MATIN [17] = assay: Post-emergence herbicidal action against MATIN; type: in vivo, Matricaria inodora
Procedure, shortened: as §2

PHBPU [18] = assay: Post-emergence herbicidal action against PHBPU; type: in vivo, Pharbitis purpurea
Procedure, shortened: as §2

SETVI [19] = assay: Post-emergence herbicidal action against SETVI; type: in vivo, Setaria viridis; conditions: dosage 20 g/ha
Procedure, shortened: as §2

VERPE [20] = assay: Post-emergence herbicidal action against VERPE; type: in vivo, Veronica persica
Procedure, shortened: as §2

VIOTR [21] = assay: Post-emergence herbicidal action against VIOTR; type: in vivo, Viola tricolor
Procedure, shortened: as §2

DIGSA [22] = assay: Post-emergence herbicidal action against DIGSA; type: in vivo, Digitaria sanguinalis; conditions: 20 g/ha
Procedure, shortened: as §2

[23] = 80 g/ha, scored visually after 3 weeks vs untreated controls (100% = plants have died, 0% = like control plants)
[24] = Tripleurospermum inodorum, 504 h, dosage 20 g/ha
[25] = Ipomoea purpurea, 504 h, dosage 20 g/ha

Cn1nnnc1NC(=O)c1ccc(C(F)(F)F)c(C(=O)NCC2CC2)c1Cl [Example 1-132]
80%: Pre-emergence action against ALOMY (ALOMY [2]; 20 g/ha, scored visually after 3 weeks, 100% = plants have died, 0% = like control plants) | Pre-emergence action against LOLRI in % (LOLRI) | Pre-emergence action against PHBPU in % (PHBPU [7]; dosage 80 g/ha) | Pre-emergence action against POLCO in % (POLCO; dosage 80 g/ha) | Pre-emergence action against SETVI in % (SETVI [8]; dosage 20 g/ha) | Post-emergence action against ABUTH in % (ABUTH [12]) | Post-emergence action against ALOMY in % (ALOMY [13]; dosage 5 g/ha) | Post-emergence action at 5 g/ha against AVEFA in % (AVEFA [15]; 5 g/ha) | Post-emergence action against MATIN in % (MATIN [17]; dosage 20 g/ha) | Post-emergence action against VIOTR in % (VIOTR [21]; 5 g/ha)
100%: Pre-emergence action against ABUTH (herbicidal activity) (ABUTH [1]; [23]) | Pre-emergence action against ABUTH (herbicidal activity in percent) (ABUTH [1]; dosage 20 g/ha, scored visually after 3 weeks vs untreated controls, 100% = plants have died, 0% = like control plants) | Pre-emergence action against ALOMY (herbicidal activity) (ALOMY [2]; 80 g/ha, pre-emergence, scored visually after 3 weeks vs untreated controls (100% = plants have died, 0% = like control plants)) | Pre-emergence action against AMARE in % (AMARE [3]; 20 g/ha, scored visually after 3 weeks vs untreated controls, 100% = plants have died, 0% = like control plants) | Pre-emergence action against AMARE in % (AMARE [3]; [23]) | Pre-emergence action against AVEFA in % (AVEFA [4]) | Pre-emergence action against ECHCG in % (ECHCG [5]; 80 g/ha) | Pre-emergence action against MATIN in % (MATIN [6]; dosage 20 g/ha) | Pre-emergence action against MATIN in % (MATIN [6]; dosage 80 g/ha) | Pre-emergence action against SETVI in % (SETVI [8]; dosage 80 g/ha) | Pre-emergence action against VERPE in % (VERPE [9]) | Pre-emergence action against VIOTR in % (VIOTR [10]; dosage 20 g/ha) | Pre-emergence action against VIOTR in % (VIOTR [10]; dosage 80 g/ha) | Pre-emergence action against DIGSA in % (DIGSA [11]; dosage 20 g/ha) | Pre-emergence action against DIGSA in % (DIGSA [11]; dosage 80 g/ha) | Post-emergence action at 20 g/ha against AMARE in % (AMARE [14])
90%: Pre-emergence action against ECHCG in % (ECHCG [5]; 20 g/ha) | Post-emergence action against ALOMY in % (ALOMY [13]; dosage 20 g/ha) | Post-emergence action at 20 g/ha against AVEFA in % (AVEFA [15]; 20 g/ha) | Post-emergence action against ECHCG in % (ECHCG [16]; dosage 20 g/ha) | Post-emergence action against PHBPU in % (PHBPU [18]; dosage 20 g/ha) | Post-emergence action against SETVI in % (SETVI [19]) | Post-emergence action against VERPE in % (VERPE [20]; 5 g/ha) | Post-emergence action against VERPE in % (VERPE [20]; 20 g/ha) | Post-emergence action against VIOTR in % (VIOTR [21]; 20 g/ha) | Post-emergence action against DIGSA (DIGSA [22])

CC(C)NC(=O)c1c(C(F)(F)F)ccc(C(=O)Nc2nnnn2C)c1Cl [Example 1-137]
90%: pest or weed control at 80 g/ha (ALOMY [2]; Alopecurus myosuroides, 504 h, 80 g/ha, pre-emergence, scored visually after 3 weeks vs untreated controls (100% = plants have died, 0% = like control plants)) | pest or weed control at 20 g/ha (ALOMY [2]; Alopecurus myosuroides, pre-emergence, 504 h, 20 g/ha, scored visually after 3 weeks, 100% = plants have died, 0% = like control plants) | pest or weed control at 80 g/ha (AVEFA [4]; Avena fatua, 504 h) | pest or weed control at 80 g/ha (LOLRI; Lolium rigidum, 504 h) | pest or weed control at 80 g/ha (PHBPU [7]; Ipomoea purpurea, 504 h, dosage 80 g/ha) | pest or weed control at 80 g/ha (VERPE [9]; Veronica persica, 504 h) | pest or weed control at 20 g/ha (VIOTR [10]; Viola tricolor, 504 h, dosage 20 g/ha) | pest or weed control at 20 g/ha (ALOMY [13]; Alopecurus myosuroides, 504 h, dosage 20 g/ha) | pest or weed control at 20 g/ha (AMARE [14]; Amaranthus retroflexus, 504 h) | pest or weed control at 5 g/ha (ECHCG [16]; Echinochloa crus-galli, 504 h, dosage 5 g/ha) | pest or weed control at 20 g/ha (ECHCG [16]; Echinochloa crus-galli, 504 h, dosage 20 g/ha)
80%: pest or weed control at 20 g/ha (ECHCG [5]; Echinochloa crus-galli, 504 h, 20 g/ha) | pest or weed control at 20 g/ha (PHBPU [7]; [25]) | pest or weed control at 20 g/ha (POLCO; Fallopia convolvulus, 504 h, dosage 20 g/ha) | pest or weed control at 20 g/ha (AVEFA [15]; Avena fatua, 504 h, 20 g/ha) | pest or weed control at 5 g/ha (MATIN [17]; Tripleurospermum inodorum, 504 h, dosage 5 g/ha) | pest or weed control at 20 g/ha (MATIN [17]; [24]) | pest or weed control at 5 g/ha (PHBPU [18]; Ipomoea purpurea, 504 h, dosage 5 g/ha) | pest or weed control at 20 g/ha (PHBPU [18]; [25]) | pest or weed control at 20 g/ha (SETVI [19]; Setaria viridis, 504 h)
100%: pest or weed control at 80 g/ha (ABUTH [1]; Abutilon theophrasti, 504 h, 80 g/ha, scored visually after 3 weeks vs untreated controls (100% = plants have died, 0% = like control plants)) | pest or weed control at 20 g/ha (ABUTH [1]; Abutilon theophrasti, 504 h, dosage 20 g/ha, scored visually after 3 weeks vs untreated controls, 100% = plants have died, 0% = like control plants, read-out: Pre-emergence action against ABUTH (herbicidal activity in percent)) | pest or weed control at 20 g/ha (AMARE [3]; Amaranthus retroflexus, 504 h, 20 g/ha, scored visually after 3 weeks vs untreated controls, 100% = plants have died, 0% = like control plants) | pest or weed control at 80 g/ha (AMARE [3]; Amaranthus retroflexus, 504 h, 80 g/ha, scored visually after 3 weeks vs untreated controls, 100% = plants have died, 0% = like control plants) | pest or weed control at 80 g/ha (ECHCG [5]; Echinochloa crus-galli, 504 h, 80 g/ha) | pest or weed control at 20 g/ha (MATIN [6]; [24]) | pest or weed control at 80 g/ha (MATIN [6]; Tripleurospermum inodorum, 504 h, dosage 80 g/ha) | pest or weed control at 80 g/ha (POLCO; Fallopia convolvulus, 504 h, dosage 80 g/ha) | pest or weed control at 80 g/ha (SETVI [8]; Setaria viridis, 504 h, dosage 80 g/ha) | pest or weed control at 80 g/ha (VIOTR [10]; Viola tricolor, 504 h, dosage 80 g/ha) | pest or weed control at 20 g/ha (DIGSA [11]; Digitaria sanguinalis, 504 h, dosage 20 g/ha) | pest or weed control at 80 g/ha (DIGSA [11]; Digitaria sanguinalis, 504 h, dosage 80 g/ha)
